Data as given in PubChem BioAssay (NCI).
In brackets after ≈: the same amount, converted by molar mass.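 How tested: cells in 96-well plates exposed to compound for 48 hours at five concentrations. GI50 marks 50% less growth. TGI: total growth inhibition.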

Columns and labels:
Assay in all cases: NCI-60 cell line screen, 48 h
[1] = test system: A498 renal
[2] = test system: ACHN renal
[3] = test system: COLO 205 colon
[4] = test system: HCT-15 colon
[5] = test system: HOP-92 NSCLC
[6] = test system: MCF7 breast
[7] = test system: OVCAR-3 ovarian
[8] = test system: SF-268 CNS
[9] = test system: SR leukemia
[10] = test system: U251 CNS
[11] = test system: RXF 393 renal

| SMILES | TGI [1] [µM] | TGI [2] | TGI [3] | TGI [4] | TGI [5] [µM] | TGI [6] | TGI [7] | TGI [8] | TGI [9] | TGI [10] | TGI [11] | GI50 [2] [µg/mL] | GI50 [3] [µg/mL] | GI50 [4] [µg/mL] | GI50 [6] [µg/mL] | GI50 [7] [µg/mL] | GI50 [11] [µg/mL] | GI50 [8] [µg/mL] | GI50 [9] [µg/mL] | GI50 [10] [µg/mL] |
| --- | --- | --- | --- | --- | --- | --- | --- | --- | --- | --- | --- | --- | --- | --- | --- | --- | --- | --- | --- | --- |
| O=c1[nH]c(N/N=C\C(O)C(O)C(O)CO)nc2ccccc12 (centres undefined) | > 100 | > 100 µM | > 100 µM | > 100 µM | > 100 | > 100 µM | > 100 µM | > 100 µM | > 100 µM | > 100 µM |  |  |  |  |  |  |  |  |  |  |
| CC(=O)Oc1ccc(C2COc3cc(OC(C)=O)c(OC(C)=O)cc3C2)cc1 (centres undefined) | 13.8 |  | 35.4 µM | 40.8 µM | 24.9 | 35.2 µM | 25.2 µM | 51.6 µM |  | 60.4 µM | 23.8 µM |  |  |  |  |  |  |  |  |  |
| CCO/C(O)=C(/C(=N)N1CCCC1)C(=O)Nc1cccc(C(F)(F)F)c1 | > 100 | > 100 µM | > 100 µM | > 100 µM |  | > 100 µM | > 100 µM | > 100 µM |  | > 100 µM | 53.6 µM |  |  |  |  |  |  |  |  |  |
| O=C1C(Br)=C(c2ccccc2)S(=O)c2ccccc21 (centres undefined) |  | 6.53 µM | 3.95 µM | 14.1 µM | 36.8 | 10.4 µM | 26 µM | 36.5 µM |  | 22.8 µM | 24.8 µM |  |  |  |  |  |  |  |  |  |
| OC12CC/C(=N/OCc3ccccc3)CC1c1ccccc12 (centres undefined) |  | > 100 µM | > 100 µM | > 100 µM |  |  | > 100 µM | > 100 µM |  | > 100 µM | > 100 µM |  |  |  |  |  |  |  |  |  |
| CCc1ccc2c(c1)CC1(C2)Cc2cc3c(cc2C1)C(=O)CC3 (centres undefined) | 46.4 | 63.9 µM | 17.5 µM | 67.3 µM | 52.7 | > 100 µM | 42.8 µM |  |  | > 100 µM | > 100 µM |  |  |  |  |  |  |  |  |  |
| Cc1ccc(SC(=O)N2C(=S)NC(=NC3CCCCC3)C23CCCCC3)cc1 |  | > 100 µM | > 100 µM | > 100 µM | > 100 | > 100 µM | > 100 µM | > 100 µM | > 100 µM | > 100 µM | > 100 µM |  |  |  |  |  |  |  |  |  |
| Cc1c(NC2(C)C(=O)N(/N=C/c3ccccc3)N=C2c2ccccc2)n[nH]c1-c1ccccc1 (centres undefined) | > 100 | > 100 µM | > 100 µM | > 100 µM | > 100 | > 100 µM | > 100 µM | > 100 µM |  | > 100 µM | > 100 µM |  |  |  |  |  |  |  |  |  |
| CC(=O)N1CCN(C23OC4(N5CCN(C(C)=O)CC5)C5C6CC(C7C6C4C72)C53)CC1 (centres undefined) |  | > 100 µM | > 100 µM | > 100 µM | > 100 | > 100 µM | > 100 µM | > 100 µM | > 100 µM | > 100 µM | > 100 µM |  |  |  |  |  |  |  |  |  |
| O=C(NCc1ccc(Cl)cc1)c1cc2sccc2nc1C(F)(F)F |  | 45.8 µM | > 100 µM |  | > 100 | > 100 µM | 98.4 µM | 66.9 µM | > 100 µM | 44.6 µM | 67.4 µM |  |  |  |  |  |  |  |  |  |
| O=c1[nH]nc(Cc2ccccc2)n1-n1cnnc1 |  | > 100 µM | > 100 µM | > 100 µM | > 100 | > 100 µM | > 100 µM | > 100 µM | > 100 µM | > 100 µM | > 100 µM |  |  |  |  |  |  |  |  |  |
| COc1cc(/C=C2/N=C(c3ccccc3)N(C3=NNC4(C(=O)N3)c3ccccc3-c3ccccc34)NC2=O)ccc1O |  | 123 µg/mL | > 150 µg/mL | > 150 µg/mL |  | 77.1 µg/mL | 53.5 µg/mL | 66.7 µg/mL | > 150 µg/mL | 44.8 µg/mL | 48.6 µg/mL | 36.3 (≈ 65.2 µM) | 55.2 (≈ 99.2 µM) | 46.7 (≈ 83.8 µM) | 33.2 (≈ 59.6 µM) | 24.8 (≈ 44.6 µM) | 26.7 (≈ 48 µM) | 27.5 (≈ 49.4 µM) | 48.3 (≈ 86.8 µM) | 24.5 (≈ 44 µM) |
| Cc1ccc(S(=O)(=O)c2c(O)c3ccccc3n(C)c2=O)cc1 | > 100 |  | > 100 µM | > 100 µM | > 100 | > 100 µM | > 100 µM | > 100 µM |  | > 100 µM | > 100 µM |  |  |  |  |  |  |  |  |  |
| Nc1cc(N2CCCC2)nc(=O)n1Cc1ccccc1 |  | > 100 µM | > 100 µM | > 100 µM | > 100 | > 100 µM |  | > 100 µM | > 100 µM | > 100 µM |  |  |  |  |  |  |  |  |  |  |
| CN(Cc1cnc2nc(N)nc(N)c2n1)c1ccc(C(=O)NC(CCC(=O)NC(P(=O)(O)O)P(=O)(O)O)C(=O)O)cc1 (centres undefined) |  | > 100 µM | > 100 µM | > 100 µM | > 100 | > 100 µM | > 100 µM | > 100 µM | > 100 µM | > 100 µM | > 100 µM |  |  |  |  |  |  |  |  |  |
| CN(C)CCCOCCn1c2c(c3ccccc31)CCCC2 |  | 29 µM | 32.3 µM | 30.5 µM | 46 | 31.5 µM | 53.1 µM | > 100 µM | 41 µM | 41.8 µM |  |  |  |  |  |  |  |  |  |  |
| CC(=O)O[C@H]1C(=O)[C@@]2(C)[C@H]([C@H](OC(=O)c3ccccc3)[C@]3(O)C[C@H](OC(=O)[C@H](O)[C@@H](NC(=O)CC(C)(C)C)c4ccccc4)C(C)=C1C3(C)C)C1(OC(C)=O)CO[C@@H]1C[C@@H]2O (some centres undefined) | > 10 | > 10 µM | 0.012 µM | > 5.78 µM |  | > 10 µM |  | > 6.19 µM |  |  | 0.148 µM |  |  |  |  |  |  |  |  |  |
| C/C(O)=C/c1nc2ccc([N+](=O)[O-])cc2nc1/C=C(/C)O | 83.6 | > 100 µM | > 100 µM | > 100 µM | 84.3 |  | > 100 µM | > 100 µM | 47 µM | > 100 µM | > 100 µM |  |  |  |  |  |  |  |  |  |
| COc1cc(C2SCC(=O)N2c2ccc(Oc3ccc(Cl)cc3)c(Cl)c2)cc(OC)c1OC (centres undefined) |  | > 100 µM | 36.6 µM | > 100 µM |  | > 100 µM | 31.1 µM | 31 µM | > 100 µM | > 100 µM |  |  |  |  |  |  |  |  |  |  |
| Cn1c2ccccc2c2c3c(c4c5ccccc5n(C)c4c21)C(=O)c1ccccc1C3=O |  | 97.3 µM | > 100 µM | > 100 µM | > 100 | > 100 µM | > 100 µM |  | 40.2 µM | 45.9 µM | 48.6 µM |  |  |  |  |  |  |  |  |  |
| O=S1(=O)c2ccccc2NC(=S)CC1c1ccccc1 (centres undefined) |  | > 100 µM | > 100 µM | > 100 µM |  | > 100 µM | > 100 µM | > 100 µM | > 100 µM | > 100 µM | > 100 µM |  |  |  |  |  |  |  |  |  |
